System: MDA-MB-231 cells
Assay: RPPA (reverse phase protein array)
Assay type: cell-based, human
Description: RPPA analysis was performed by MD Anderson Cancer Center RPPA core facility.
Examination of the Molecular Signaling Events) and/or Downstream Pathways Responsible for the Migration and Invasion Effects Observed by Exemplary Compound Treatment. To pinpoint these observations to a molecular signaling event or specific downstream pathway, reverse phase protein array (RPPA) analysis was performed (Table 4).

CNC(=O)c1ccc(Nc2ncc(C(F)(F)F)c(NCc3nccnc3N(C)S(C)(=O)=O)n2)cc1 [Defactinib, defactinib, reference compound]
rel. Protein level, Merlin (1000nM): 99.3% | rel. Protein level, Mnk1 (1000nM): 97.5% | rel. Protein level, Myosin-11 (1000nM): 100.9% | rel. Protein level, Myosin-IIa_pS1943 (1000nM): 108.6% | rel. Protein level, Myt1 (1000nM): 94.5% | rel. Protein level, N-Cadherin (1000nM): 107.8% | rel. Protein level, N-Ras (1000nM): 93.7% | rel. Protein level, NAPSIN-A (1000nM): 99.4% | rel. Protein level, NDRG1_pT346 (1000nM): 103.5% | rel. Protein level, NDUFB4 (1000nM): 96.3% | rel. Protein level, NF-kB-p65_pS536 (1000nM): 105.0% | rel. Protein level, Notch1 (1000nM): 96.2% | rel. Protein level, Notch3 (1000nM): 105.9% | rel. Protein level, Oct-4 (1000nM): 100.5% | rel. Protein level, P-Cadherin (1000nM): 104.3% | rel. Protein level, PAI-1 (1000nM): 106.1% | rel. Protein level, PAICS (1000nM): 98.7% | rel. Protein level, PAK1 (1000nM): 107.0% | rel. Protein level, PAK4 (1000nM): 95.5% | rel. Protein level, PAR (1000nM): 135.9% | rel. Protein level, PARP (1000nM): 98.0% | rel. Protein level, PCNA (1000nM): 88.7% | rel. Protein level, PD-1 (1000nM): 107.0% | rel. Protein level, PD-L1 (1000nM): 92.6% | rel. Protein level, PDGFR-b (1000nM): 138.5% | rel. Protein level, PDHK1 (1000nM): 102.5% | rel. Protein level, PDK1 (1000nM): 99.8% | rel. Protein level, PDK1_pS241 (1000nM): 97.4% | rel. Protein level, PEA-15 (1000nM): 98.7% | rel. Protein level, PEA-15_pS116 (1000nM): 97.0% | rel. Protein level, PI3K-p85 (1000nM): 100.0% | rel. Protein level, PI3K-p110-a (1000nM): 103.7% | rel. Protein level, PI3K-p110-b (1000nM): 98.5% | rel. Protein level, PKA-a (1000nM): 99.6% | rel. Protein level, PKC-b-II_pS660 (1000nM): 98.6% | rel. Protein level, PKC-delta_pS664 (1000nM): 100.9% | rel. Protein level, PKCa (1000nM): 110.1% | rel. Protein level, PKM2 (1000nM): 106.2% | rel. Protein level, PLC-gamma2_pY759 (1000nM): 97.2% | rel. Protein level, PLK1 (1000nM): 82.1% | rel. Protein level, PMS2 (1000nM): 98.6% | rel. Protein level, PR (1000nM): 100.3% | rel. Protein level, PRAS40 (1000nM): 98.3% | rel. Protein level, PRAS40_pT246 (1000nM): 90.7% | rel. Protein level, PREX1 (1000nM): 105.2% | rel. Protein level, PTEN (1000nM): 108.6% | rel. Protein level, Paxillin (1000nM): 105.5% | rel. Protein level, Pdcd4 (1000nM): 117.5% | rel. Protein level, Porin (1000nM): 95.2% | rel. Protein level, RBM15 (1000nM): 103.9% | rel. Protein level, RIP (1000nM): 103.7% | rel. Protein level, RPA32 (1000nM): 96.8% | rel. Protein level, RPA32_pS4-S8 (1000nM): 93.9% | rel. Protein level, RSK (1000nM): 104.4% | rel. Protein level, Rab11 (1000nM): 101.7% | rel. Protein level, Rab25 (1000nM): 97.8% | rel. Protein level, Rad50 (1000nM): 104.7% | rel. Protein level, Rad51 (1000nM): 102.1% | rel. Protein level, Raptor (1000nM): 98.9% | rel. Protein level, Rb (1000nM): 93.9% | rel. Protein level, Rb_pS807_S811 (1000nM): 84.3% | rel. Protein level, Rheb (1000nM): 91.7% | rel. Protein level, Rictor (1000nM): 111.8% | rel. Protein level, Rictor_pT1135 (1000nM): 90.0% | rel. Protein level, S6 (1000nM): 102.7% | rel. Protein level, S6_pS235_S236 (1000nM): 50.9% | rel. Protein level, S6_pS240_S244 (1000nM): 49.1% | rel. Protein level, b-Actin (1000nM): 101.1% | rel. Protein level, b-Catenin (1000nM): 100.0% | rel. Protein level, b-Catenin_pT41_S45 (1000nM): 98.3% | rel. Protein level, c-Abl (1000nM): 109.1% | rel. Protein level, c-IAP2 (1000nM): 94.3% | rel. Protein level, c-Jun_pS73 (1000nM): 92.7% | rel. Protein level, c-Kit (1000nM): 101.5% | rel. Protein level, c-Met_pY1234_Y1235 (1000nM): 98.9% | rel. Protein level, c-Myc (1000nM): 95.9% | rel. Protein level, cdc2_pY15 (1000nM): 90.1% | rel. Protein level, cdc25C (1000nM): 98.2% | rel. Protein level, eEF2 (1000nM): 94.8% | rel. Protein level, eEF2K (1000nM): 116.4% | rel. Protein level, eIF4E (1000nM): 105.5% | rel. Protein level, eIF4E_pS209 (1000nM): 95.7% | rel. Protein level, eIF4G (1000nM): 95.8% | rel. Protein level, mTOR (1000nM): 92.1% | rel. Protein level, mTOR_pS2448 (1000nM): 88.3% | rel. Protein level, p21 (1000nM): 100.5% | rel. Protein level, p27-Kip-1 (1000nM): 96.7% | rel. Protein level, p27_pT198 (1000nM): 96.4% | rel. Protein level, p38-MAPK (1000nM): 94.3% | rel. Protein level, p38_pT180_Y182 (1000nM): 100.6% | rel. Protein level, p44-42-MAPK (1000nM): 108.2% | rel. Protein level, p53 (1000nM): 93.7% | rel. Protein level, p70-S6K1 (1000nM): 111.0% | rel. Protein level, p70-S6K_pT389 (1000nM): 95.5% | rel. Protein level, p90RSK_pT573 (1000nM): 98.9% | rel. Protein level [%], SCD (antibody SCD, 1000nM, n = 2): 98.9% | rel. Protein level [%], SDHA (antibody SDHA, 1000nM, n = 2): 103.8% | rel. Protein level [%], SF2 (antibody SF2, 1000nM, n = 2): 95.8% | rel. Protein level [%], SHP-2_pY542 (antibody SHP-2_pY542, 1000nM, n = 2): 97.2% | rel. Protein level [%], SLC1A5 (antibody SLC1A5, 1000nM, n = 2): 111.6% | rel. Protein level [%], SOD1- (antibody SOD1-, 1000nM, n = 2): 97.7% | rel. Protein level [%], SOD2 (antibody SOD2, 1000nM, n = 2): 106.0% | rel. Protein level [%], STING (antibody STING, 1000nM, n = 2): 135.4% | rel. Protein level [%], Shc_pY317 (antibody Shc_pY317, 1000nM, n = 2): 104.3% | rel. Protein level [%], Slfn11 (antibody Slfn11, 1000nM, n = 2): 95.9% | rel. Protein level [%], Smac (antibody Smac, 1000nM, n = 2): 99.9% | rel. Protein level [%], Smad1 (antibody Smad1, 1000nM, n = 2): 97.8% | rel. Protein level [%], Smad3 (antibody Smad3, 1000nM, n = 2): 102.3% | rel. Protein level [%], Smad4 (antibody Smad4, 1000nM, n = 2): 95.2% | rel. Protein level [%], Snail (antibody Snail, 1000nM, n = 2): 101.3% | rel. Protein level [%], Sox2 (antibody Sox2, 1000nM, n = 2): 100.5% | rel. Protein level [%], Src (antibody Src, 1000nM, n = 2): 103.9% | rel. Protein level [%], Src_pY419 (antibody Src_pY419, 1000nM, n = 2): 99.6% | rel. Protein level [%], Src_pY527 (antibody Src_pY527, 1000nM, n = 2): 93.7% | rel. Protein level [%], Stat3 (antibody Stat3, 1000nM, n = 2): 92.9% | rel. Protein level [%], Stat3_pY705 (antibody Stat3_pY705, 1000nM, n = 2): 100.5% | rel. Protein level [%], Stat5a (antibody Stat5a, 1000nM, n = 2): 108.2% | rel. Protein level [%], Stathmin-1 (antibody Stathmin-1, 1000nM, n = 2): 99.3% | rel. Protein level [%], Syk (antibody Syk, 1000nM, n = 2): 95.8% | rel. Protein level [%], TAZ (antibody TAZ, 1000nM, n = 2): 100.5% | rel. Protein level [%], TFAM (antibody TFAM, 1000nM, n = 2): 101.4% | rel. Protein level [%], TFRC (antibody TFRC, 1000nM, n = 2): 96.3% | rel. Protein level [%], TIGAR (antibody TIGAR, 1000nM, n = 2): 100.5% | rel. Protein level [%], TRIM25 (antibody TRIM25, 1000nM, n = 2): 99.8% | rel. Protein level [%], TSC1 (antibody TSC1, 1000nM, n = 2): 102.5% | rel. Protein level [%], TTF1 (antibody TTF1, 1000nM, n = 2): 95.4% | rel. Protein level [%], TUFM (antibody TUFM, 1000nM, n = 2): 98.4% | rel. Protein level [%], TWIST (antibody TWIST, 1000nM, n = 2): 97.7% | rel. Protein level [%], Tau (antibody Tau, 1000nM, n = 2): 102.9% | rel. Protein level [%], Transglutaminase (antibody Transglutaminase, 1000nM, n = 2): 93.5% | rel. Protein level [%], Tuberin (antibody Tuberin, 1000nM, n = 2): 101.7% | rel. Protein level [%], Tuberin_pT1462 (antibody Tuberin_pT1462, 1000nM, n = 2): 93.6% | rel. Protein level [%], Tyro3 (antibody Tyro3, 1000nM, n = 2): 98.5% | rel. Protein level [%], U-Histone-H2B (antibody U-Histone-H2B, 1000nM, n = 2): 113.8% | rel. Protein level [%], UBAC1 (antibody UBAC1, 1000nM, n = 2): 99.7% | rel. Protein level [%], UGT1A (antibody UGT1A, 1000nM, n = 2): 98.6% | rel. Protein level [%], ULK1_pS757 (antibody ULK1_pS757, 1000nM, n = 2): 102.1% | rel. Protein level [%], VASP (antibody VASP, 1000nM, n = 2): 100.5% | rel. Protein level [%], VEGFR-2 (antibody VEGFR-2, 1000nM, n = 2): 93.5% | rel. Protein level [%], VHL-EPPK1 (antibody VHL-EPPK1, 1000nM, n = 2): 88.7% | rel. Protein level [%], WIPI1 (antibody WIPI1, 1000nM, n = 2): 102.3% | rel. Protein level [%], WIPI2 (antibody WIPI2, 1000nM, n = 2): 106.2% | rel. Protein level [%], Wee1 (antibody Wee1, 1000nM, n = 2): 95.3% | rel. Protein level [%], Wee1_pS642 (antibody Wee1_pS642, 1000nM, n = 2): 95.2% | rel. Protein level [%], XBP-1 (antibody XBP-1, 1000nM, n = 2): 89.5% | rel. Protein level [%], XPA (antibody XPA, 1000nM, n = 2): 83.5% | rel. Protein level [%], XPF (antibody XPF, 1000nM, n = 2): 100.5% | rel. Protein level [%], XRCC1 (antibody XRCC1, 1000nM, n = 2): 102.3% | rel. Protein level [%], YAP (antibody YAP, 1000nM, n = 2): 93.7% | rel. Protein level [%], YAP_pS127 (antibody YAP_pS127, 1000nM, n = 2): 103.1% | rel. Protein level [%], YB1_pS102 (antibody YB1_pS102, 1000nM, n = 2): 82.7% | rel. Protein level [%], ZAP-70 (antibody ZAP-70, 1000nM, n = 2): 95.1%

From patent publication US20200038513A1, “MODULATORS OF FAK PROTEOLYSIS AND ASSOCIATED METHODS OF USE” (ARVINAS OPERATIONS, INC., priority 2018, published 2020)
